Results as given in US6265423A, “Aromatic polycyclic retinoid-type derivatives, method for preparing same, and use thereof for making pharmaceutical and cosmetic compositions” (priority 1996, dated 2001).
“Also recorded” adds a separate entry of the source.

How the values were obtained:
[1] = system: RARE, endogenic RAR and RXR receptors, HRL+N lineage; test: HRL+N transactivation (RARE-luciferase, stably transfected HeLa); type: cell-based; conditions: for Emax: Homo sapiens, HeLa, read-out: HRL+N transactivation, E max (Table 27)
Method: MCF-7 cells and HeLa are cultivated in DMFM with phenol red to which 5% foetal calf serum is added. The T47-D cells are cultivated in RPMI to which 10% foetal calf serum is added. The experimental tests are carried out in DMEM without phenol red to which foetal calf serum treated with dextran carbon is added at 3%. […] The experiments using the different retinoids are carried out sheltered from the light so as to avoid any isomerisation.
Certain properties of the retinoids have been determined using more developed cellular models. These models consist of cellular lineages transfected in a stable fashion by recombinant plasmids which place the expression of the gene of the luciferase under the control of different nuclear response elements. […] The tests carried out in duplicate are described below for each of these models.
The cellular lineages HRLN and HRL+N allow one to study the activation of an RARE by endogenic receptors using ligands at physiological concentrations. These lineages derive from HeLa cells transfected in a stable fashion by a reporter gene which places the expression of the gene of the luciferase under the control of a nuclear response element RARE (RARE3 -tk-Luc). The HeLa cells express all the known receptors of the retinoic acid (RARα,β,γ and RXRα,β,γ) with a predominance of RARα and RXRα. The response element RARE used for the HRLN cells corresponds to the sequence of the natural gene of the RARβ receptor (GGTTCAnnnnnAGTTCA). The HRL+N cells comprise the sequence GAGTGAnnnnnCGGTGA.
The HRL+N lineage allows one to visualise a co-activation of the RAR and RXR receptors at the level of the RAR-RXR hetero-dimer.

RARβ-ERcassette = test: Transactivation, chimerical receptor RARβ-ERcassette (HeLa); type: cell-based; conditions: TTNPB 10^-8 M = 100
Method in brief: (§1)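 HeLa cells were transiently co-transfected by calcium phosphate co-precipitation with […] chimeric receptor plasmid (RAR DNA-binding C domain replaced by the oestrogen receptor's; A, B, D, E, F regions kept), […] ERE-luciferase reporter and […] CMV-β-galactosidase control. Compounds were applied 24 h later for 16 h.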

Gal4-RARγ = test: Transactivation, chimerical receptor Gal4-RARγ (transitory transfection of HeLa); type: cell-based; conditions: 100% = TTNPB 10^-8 M
RARα-ERcassette = test: Transactivation, chimerical receptor RARα-ERcassette (HeLa); type: cell-based; conditions: TTNPB 10^-8 M = 100
Method in brief: as §1

[2] = system: ERE-βGlob-Luc, MELN lineage (MCF-7); test: Anti-oestrogenic effect, MELN lineage activated by estradiol; type: cell-based, human; conditions: for inhibition / inhibition at 0.1 µM: Homo sapiens, MCF7, cells activated by 10^-9 M estradiol; for inhibition: 10^-6 M; for anti-oestrogenic effect (in words): estradiol-activated MELN cells; for inhibition at 0.1 µM: 10^-7 M, read-out: anti-oestrogenic effect, inhibition
Method in brief: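 MCF-7-derived MELN cells stably carry luciferase driven by chicken vitellogenin A2 ERE and βGlobin promoter; stimulated with 10^-9 M estradiol, run in duplicate. Basal activity is set with 1 μM 4-OH-tamoxifen and subtracted. Effect expressed as percentage.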

[3] = system: AP-1, MTLN lineage (MCF-7); test: Anti-AP-1 effect, MTLN lineage activated by TPA; type: cell-based, human; conditions: for inhibition at 1 µM / inhibition at 0.1 µM: Homo sapiens, MCF7, cells activated by 10^-7 M TPA, range of several experiments; for inhibition at 1 µM: 10^-6 M; for inhibition at 0.1 µM: 10^-7 M, read-out: anti-AP-1 effect, inhibition; for anti-AP-1 effect (in words): TPA-activated MTLN cells
Method in brief: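 MCF-7-derived MTLN cells stably carrying a p(TRE)3-tk-Luc reporter, activated with 10^-7 M TPA, run in duplicate. Luciferase inhibition by compounds given as percentage after subtracting basal cell activity, reported as a range from several experiments.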

T-47D cells = test: Effect on oestrogen-induced proliferation of T-47D cells; type: cell-based, human; conditions: for activity at 1 µM: Homo sapiens, T47D, 168 h, 10^-6 M, 100% = E2 10^-9 M, read-out: growth of T-47D cells
Gal4-RARα = test: Transactivation, chimerical receptor Gal4-RARα (transitory transfection of HeLa); type: cell-based; conditions: 100% = TTNPB 10^-8 M
[4] = system: A549 human pulmonary cancer cells; test: MTT test, proliferation of A549; type: cell-based; conditions: for activity at 100 µM / activity at 1 µM / activity at 0.01 µM: Homo sapiens, 72 h, control = 100%, read-out: level of proliferation; for activity at 100 µM: A549, 10^-4 M; for activity at 1 µM: A549, 10^-6 M; for activity at 0.01 µM: A549, 10^-8 M; for effect on cellular increase, A549 (in words): MTT test
[5] = system: A-427 human pulmonary cancer cells; test: MTT test, proliferation of A-427; conditions: for activity at 0.01 µM / activity at 1 µM / activity at 100 µM: Homo sapiens, A-427, 72 h, read-out: level of proliferation; for effect on cellular increase, A-427 (in words): MTT test

| SMILES | HRL+N transactivation (in words) [1] | RAR-ERcassette RARβ transactivation (RARβ-ERcassette; 10^-6 M) [%] | RAR-ERcassette RARβ transactivation (RARβ-ERcassette; 10^-7 M) [%] | GAL4-RAR RARγ transactivation (Gal4-RARγ; 10^-6 M) [%] | RAR-ERcassette RARα transactivation (RARα-ERcassette; 10^-6 M) [%] | RAR-ERcassette RARα transactivation (RARα-ERcassette; 10^-7 M) [%] | inhibition [2] [%] | anti-oestrogenic effect (in words) [2] | inhibition at 1 µM [3] [%] | activity at 1 µM (T-47D cells; 7 days) [%] | GAL4-RAR RARα transactivation (Gal4-RARα; 10^-6 M) [%] | Emax [1] [%] | RAR-ERcassette RARβ transactivation (RARβ-ERcassette; 10^-8 M) [%] | RAR-ERcassette RARα transactivation (RARα-ERcassette; 10^-8 M) [%] | activity at 100 µM [4] [%] | activity at 1 µM [4] [%] | activity at 0.01 µM [4] [%] | inhibition at 0.1 µM [3] [%] | activity at 0.01 µM [5] [%] | activity at 1 µM [5] [%] | further results |
| --- | --- | --- | --- | --- | --- | --- | --- | --- | --- | --- | --- | --- | --- | --- | --- | --- | --- | --- | --- | --- | --- |
| C/C(=C/c1ccc2c(c1)C(C)(C)CCC2(C)C)c1ccc(C(=O)O)nc1 [CB16279, (Z) 5-[1-(5,6,7,8-tetrahydro-5,5,8,8-tetramethyl-2-naphthalenyl)-2-propenyl]pyridinyl-2-carboxylic acid] | bring about a transactivation greater than RAR selective agonists (TTNPB) | 118 | 60 | 59 | 60 | 6 | 32 | permit a transrepression of a controlled gene by an ERE | 23 to 26 | 84 | 33 |  |  |  |  |  |  |  |  |  |  |
| C/C(=C/c1ccc2c(c1)C(C)(C)CCC2(C)C)c1ccc(C(=O)O)cc1 [CB28628, reference compound] | induces a transactivation maximum greater than that of TTNPB | 183 | 115 |  | 179 | 95 | 29 to 41 |  | 58 | 33 |  | 158 | 88 | 35 | 12.4 | 93.4 | 109 | 40 | 86.7 | 86.8 | GAL4-RAR RARγ transactivation (Gal4-RARγ; 10^-7 M): 106%; inhibition at 0.1 µM [2]: 31%; anti-AP-1 effect (in words) [3]: exhibits a strong anti-AP-1 effect on the MCF-7 cells; inhibition of growth (of the order of) (T-47D cells; estradiol 10^-9 M, 7 days): ~70%; activity at 100 µM [5]: 2.5%; GAL4-RAR RARα transactivation (Gal4-RARα; 10^-7 M): 103% |
| C/C(=C/c1ccc2c(c1)C(C)(C)CCC2(C)C)c1ccc(C(=O)O)cn1 [CB38416, (Z) 2-[1-(5,6,7,8-tetrahydro-5,5,8,8-tetramethyl-2-naphthalenyl)-2-propenyl]pyridinyl-5-carboxylic acid] | bring about a transactivation greater than RAR selective agonists (TTNPB) | 198 | 57 | 99 | 65 | 7 | 19 | permit a transrepression of a controlled gene by an ERE | 21 to 25 | 50 to 60 | 58 | 131 | 10 | 0 | 109 | 105 | 126 | 7 to 14 | 106 | 105 | inhibition at 0.1 µM [2]: 0%; activity at 100 µM [5]: 24.1% |
| CC1(C)CCC(C)(C)c2cc(/C=C(\c3ccc(-c4nnn[nH]4)cc3)C(F)(F)F)ccc21 [CB77402, (E) 5-[4-[1-trifluoromethyl-2-(5,6,7,8-tetrahydro-5,5,8,8-tetramethyl-2-naphthalenyl)-1-ethenyl]phenyl]-1H-tetrazole] | weak transactivation, less than that of TTNPB; also recorded: with a specific RAR agonist induces a stronger transactivation than that observed for each compound tested separately | 37 | 31 | 0 | 8 | 1 | 0 | inactive | 30 to 33 |  | 6 | 33 | 0 | 0 | 10.7 | 86 | 93.1 | 21 to 23 | 82.3 | 77.6 | effect on cellular increase, A549 (in words) [4]: show activity on the increase of these two lineages; anti-AP-1 effect (in words) [3]: anti-AP-1 molecules through RXR; also recorded: additive nature of the anti-AP-1 inhibitor effect; activity at 100 µM [5]: 0.2%; effect on cellular increase, A-427 (in words) [5]: show activity on the increase of these two lineages |
| C/C(=C/c1ccc2c(c1)C(C)(C)CCC2(C)C)c1ccc(-c2nnn[nH]2)cc1 [CB92834] | weak transactivation, less than that of TTNPB; also recorded: with a specific RAR agonist induces a stronger transactivation than that observed for each compound tested separately; also recorded: over-activation by CB92834 of the transactivation induced by a selective RAR agonist on the HRL+N lineage | 43 | 36 | 2 | 11 | 9 | 0 | inactive | 20 to 23 | 94 | 8 | 42 | 0 | 0 | 14.4 | 109 | 105 | 4 to 9 | 80.5 | 78.3 | effect on cellular increase, A549 (in words) [4]: show activity on the increase of these two lineages; anti-AP-1 effect (in words) [3]: anti-AP-1 molecules through RXR; effect on oestrogen-induced growth, T-47D (in words) (T-47D cells; estradiol 10^-9 M): inactive on the oestrogen-induced growth; activity at 100 µM [5]: 3.1%; effect on cellular increase, A-427 (in words) [5]: show activity on the increase of these two lineages |
